What was measured:
[1] = pH 6.5
Procedure: (§1) Human gastro-intestinal juice was obtained from healthy male volunteers who had been fasting for 8 h. A tube was introduced intranasally after local anaesthesia with xylocaine, and gastric juice was collected. Thereafter one standardized meal was given 1 h before sampling of duodenal and distal jejunum juice and another the next morning before the collection of distal ileal juice. After centrifugation the gastric and intestinal juices were frozen in aliquots of 1 ml and stored at -20° C.
(§2) The peptide or peptide analog (10 μl of 10 mM peptide in 0.9% aqueous NaCl) was added to 190 μl of undiluted juice at 37° C. Aliquots of 25 μl were withdrawn at intervals and mixed with 100 μl acetone to stop the reaction. After centrifugation for 10 min at 10,000 g, 10 μl of the supernatant was analyzed by reversed phase HPLC. The effects of increasing amounts of aprotinin were examined under the above conditions in intestinal juice from the ileum.
(§3) Analysis was carried out in a Varian 5000 HPLC analyzer equipped with a UV-detector (220 nm). Column Bondapak TM C18 (3.9×300 mm), eluant MeOH/0.025M NH4 Ac (isocratic conditions), flow rate 1 ml/min.

[2] = human, in vivo
Procedure: Experiments with healthy volunteers. After having fasted for 8 hours six healthy male volunteers were intubated (cf. example 1) with quadruple lumen flexible PVC tubes. The open end of the tube was positioned in the duodenum close to the pylorus; correct positioning was verified fluoroscopically. DDAVP acetate (0.4 mg in 2 ml 0.9% aqueous sodium chloride) was applied at the start and the tube was rinsed with 2 ml 0.9% aqueous sodium chloride. Perfusion with aprotinin (ANTAGOSAN™, Hoechst, Germany; aqueous solution, 10,000 kallikrein inactivator units/ml) started immediately after application of DDAVP and continued for 4 h at a rate of 5 ml/min. A standard breakfast was given 5-10 min after application of DDAVP, and a standardized meal 4 h later. From 2 h after start onwards the volunteers were given 100 ml/h water orally. Each volunteer participated in three sessions.
Bioavailability was determined for each subject in a separate session by intravenous bolus injection of DDAVP (4 μg); blood samples were drawn before and up to 8 h after drug application and analyzed for DDAVP as described above.

[3] = in the presence of aprotinin, rat; cited from earlier work
[4] = Degradation of peptide in human gastro-intestinal juice (HPLC); conditions: intestinal juice from the ileum, pH 6.5, increasing amounts of aprotinin
Procedure: as §1, §2, §3

Q: With `NC(=O)CC[C@@H]1NC(=O)[C@H](Cc2ccccc2)NC(=O)[C@H](Cc2ccc(O)cc2)NC(=O)CCSSC[C@@H](C(=O)N2CCC[C@H]2C(=O)N[C@H](CCCN=C(N)N)C(=O)NCC(N)=O)NC(=O)[C@H](CC(N)=O)NC1=O` [DDAVP, desmopressin] as the molecule, how does the “DDAVP degraded to (after 35 min)” value [1] read?
A: about 50%

Q: And the “Increase of DDAVP absorption in presence of aprotinin” value [2]?
A: about five-fold

Q: And the “DDAVP absorption (bioavailability)” value ([2]; male, 0.4 mg)?
A: about 0.1 % by weight

Q: With “(1-deamino-4-valine)-8-D-arginine-vasopressin” as the molecule, how does the “Urine retention after gastric administration of an aqueous solution” value [3] read?
A: moderately enhanced

Q: With aprotinin as the molecule, how does the “Inhibition of DDAVP degradation by aprotinin” value [4] read?
A: concentration-dependent inhibition

Source: patent publication US5780434A, “Composition for oral administration of peptides” (Ferring B.V., priority 1993, dated 1998)
